# Tested on: 276233-004-R-J1-PDC complex spheroid viability
# Assay: Anticancer human tumor 276233-004-R-J1-PDC patient-derived colon adenocarcinoma cell line growth inhibition [GQUAD]
# Conditions: for IC50: curve of first compound; for viability, T/C: stronger effect = lower value
# Summary of the method: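 Viability of tumor cells grown as complex spheroids with endothelial and stromal cells, exposed to drug combinations. Top concentration at or near clinical Cmax (else 10 microM), diluted in half-log increments.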
# [1] = second compound 0.0316 µM, first compound 0.0316 µM
# [2] = second compound 0.0316 µM, first compound 0.1 µM
# [3] = second compound 0.0316 µM, first compound 0.316 µM
# [4] = second compound 0.0316 µM, first compound 1 µM
# [5] = second compound 0.0316 µM, first compound 3.16 µM
# [6] = second compound 0.0316 µM, first compound 10 µM
# [7] = second compound 0.1 µM, first compound 0.0316 µM
# [8] = second compound 0.1 µM, first compound 0.1 µM
# [9] = second compound 0.1 µM, first compound 0.316 µM
# [10] = second compound 0.1 µM, first compound 1 µM
# [11] = second compound 0.1 µM, first compound 3.16 µM
# [12] = second compound 0.1 µM, first compound 10 µM
# [13] = second compound 0.316 µM, first compound 0.0316 µM
# [14] = second compound 0.316 µM, first compound 0.1 µM
# [15] = second compound 0.316 µM, first compound 0.316 µM
# [16] = second compound 0.316 µM, first compound 1 µM
# [17] = second compound 0.316 µM, first compound 3.16 µM
# [18] = second compound 0.316 µM, first compound 10 µM
# [19] = second compound 1 µM, first compound 0.0316 µM
# [20] = second compound 1 µM, first compound 0.1 µM
# [21] = second compound 1 µM, first compound 0.316 µM
# [22] = second compound 1 µM, first compound 1 µM
# [23] = second compound 1 µM, first compound 3.16 µM
# [24] = second compound 1 µM, first compound 10 µM
# [25] = second compound 3.16 µM, first compound 0.0316 µM
# [26] = second compound 3.16 µM, first compound 0.1 µM
# [27] = second compound 3.16 µM, first compound 0.316 µM
# [28] = second compound 3.16 µM, first compound 1 µM
# [29] = second compound 3.16 µM, first compound 3.16 µM
# [30] = second compound 3.16 µM, first compound 10 µM
# [31] = second compound 10 µM, first compound 0.0316 µM
# [32] = second compound 10 µM, first compound 0.1 µM
# [33] = second compound 10 µM, first compound 0.316 µM
# [34] = second compound 10 µM, first compound 1 µM
# [35] = second compound 10 µM, first compound 3.16 µM
# [36] = second compound 10 µM, first compound 10 µM
# 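Further: spheroids exposed to drugs for seven days.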
# 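Wherever viability, T/C is given: 100% = DMSO vehicle control viability.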
smiles,measurement,setting,value
O=C(NO)c1cnc(N2CCN(S(=O)(=O)c3ccc4ccccc4c3)CC2)nc1 + Cc1[nH]c2ccc(F)cc2c1-c1nc2c3cccnc3c3ncccc3c2[nH]1,IC50,second compound 0.0316 µM,427 nM
same,IC50,second compound 0.1 µM,372 nM
same,IC50,second compound 0.316 µM,360 nM
same,IC50,second compound 1 µM,102 nM
same,IC50,second compound 3.16 µM,< 31.6 nM
same,IC50,second compound 10 µM,< 31.6 nM
same,"viability, T/C",[1],87.1%
same,"viability, T/C",[2],86%
same,"viability, T/C",[3],66.7%
same,"viability, T/C",[4],2.71%
same,"viability, T/C",[5],0.44%
same,"viability, T/C",[6],0.48%
same,"viability, T/C",[7],83.2%
same,"viability, T/C",[8],108%
same,"viability, T/C",[9],57.9%
same,"viability, T/C",[10],5.03%
same,"viability, T/C",[11],0.38%
same,"viability, T/C",[12],0.83%
same,"viability, T/C",[13],50.4%
same,"viability, T/C",[14],71.8%
same,"viability, T/C",[15],56.1%
same,"viability, T/C",[16],2.35%
same,"viability, T/C",[17],2.07%
same,"viability, T/C",[18],0.4%
same,"viability, T/C",[19],58.8%
same,"viability, T/C",[20],41.5%
same,"viability, T/C",[21],42.8%
same,"viability, T/C",[22],3.96%
same,"viability, T/C",[23],1.07%
same,"viability, T/C",[24],0.62%
same,"viability, T/C",[25],17.4%
same,"viability, T/C",[26],17%
same,"viability, T/C",[27],14.8%
same,"viability, T/C",[28],1.23%
same,"viability, T/C",[29],1.33%
same,"viability, T/C",[30],0.42%
same,"viability, T/C",[31],26.4%
same,"viability, T/C",[32],26.6%
same,"viability, T/C",[33],22.1%
same,"viability, T/C",[34],3.12%
same,"viability, T/C",[35],1.25%
same,"viability, T/C",[36],0.61%
CC(=O)O[C@H]1C(=O)[C@@]2(C)[C@H]([C@H](OC(=O)c3ccccc3)[C@]3(O)C[C@H](OC(=O)[C@H](O)[C@@H](NC(=O)c4ccccc4)c4ccccc4)C(C)=C1C3(C)C)[C@]1(OC(C)=O)CO[C@@H]1C[C@@H]2O + Cc1[nH]c2ccc(F)cc2c1-c1nc2c3cccnc3c3ncccc3c2[nH]1,IC50,second compound 0.0316 µM,> 10000 nM
same,IC50,second compound 0.1 µM,> 10000 nM
same,IC50,second compound 0.316 µM,> 10000 nM
same,IC50,second compound 1 µM,341 nM
same,IC50,second compound 3.16 µM,< 31.6 nM
same,IC50,second compound 10 µM,< 31.6 nM
same,"viability, T/C",[1],82.4%
same,"viability, T/C",[2],72%
same,"viability, T/C",[3],68.8%
same,"viability, T/C",[4],81.9%
same,"viability, T/C",[5],100%
same,"viability, T/C",[6],70.9%
same,"viability, T/C",[7],66.3%
same,"viability, T/C",[8],77.2%
same,"viability, T/C",[9],68.7%
same,"viability, T/C",[10],77.3%
same,"viability, T/C",[11],64.2%
same,"viability, T/C",[12],64.9%
same,"viability, T/C",[13],72.6%
same,"viability, T/C",[14],65.4%
same,"viability, T/C",[15],57.1%
same,"viability, T/C",[16],53.5%
same,"viability, T/C",[17],62.4%
same,"viability, T/C",[18],47.8%
same,"viability, T/C",[19],49.7%
same,"viability, T/C",[20],57%
same,"viability, T/C",[21],55.4%
same,"viability, T/C",[22],39.2%
same,"viability, T/C",[23],45.8%
same,"viability, T/C",[24],51.8%
same,"viability, T/C",[25],20.4%
same,"viability, T/C",[26],14.5%
same,"viability, T/C",[27],15.4%
same,"viability, T/C",[28],12.3%
same,"viability, T/C",[29],13.6%
same,"viability, T/C",[30],12.1%
same,"viability, T/C",[31],42.2%
same,"viability, T/C",[32],40.1%
same,"viability, T/C",[33],38.5%
same,"viability, T/C",[34],28.1%
same,"viability, T/C",[35],30.4%
same,"viability, T/C",[36],33.5%
CCCS(=O)(=O)Nc1ccc(F)c(C(=O)c2c[nH]c3ncc(-c4ccc(Cl)cc4)cc23)c1F + Cc1[nH]c2ccc(F)cc2c1-c1nc2c3cccnc3c3ncccc3c2[nH]1,IC50,second compound 0.0316 µM,> 10000 nM
same,IC50,second compound 0.1 µM,> 10000 nM
same,IC50,second compound 0.316 µM,> 10000 nM
same,IC50,second compound 1 µM,< 31.6 nM
same,IC50,second compound 3.16 µM,< 31.6 nM
same,IC50,second compound 10 µM,< 31.6 nM
same,"viability, T/C",[1],99.6%
same,"viability, T/C",[2],82.8%
same,"viability, T/C",[3],83.3%
same,"viability, T/C",[4],101%
same,"viability, T/C",[5],78.8%
same,"viability, T/C",[6],50.8%
same,"viability, T/C",[7],95.7%
same,"viability, T/C",[8],81.7%
same,"viability, T/C",[9],80.7%
same,"viability, T/C",[10],78.5%
same,"viability, T/C",[11],59.7%
same,"viability, T/C",[12],61.2%
same,"viability, T/C",[13],74.3%
same,"viability, T/C",[14],71.2%
same,"viability, T/C",[15],63.9%
same,"viability, T/C",[16],65.3%
same,"viability, T/C",[17],55%
same,"viability, T/C",[18],61.9%
same,"viability, T/C",[19],52.9%
same,"viability, T/C",[20],41.3%
same,"viability, T/C",[21],44.2%
same,"viability, T/C",[22],50.1%
same,"viability, T/C",[23],61.9%
same,"viability, T/C",[24],37.7%
same,"viability, T/C",[25],18.2%
same,"viability, T/C",[26],12.9%
same,"viability, T/C",[27],27.3%
same,"viability, T/C",[28],15.5%
same,"viability, T/C",[29],20.9%
same,"viability, T/C",[30],13.1%
same,"viability, T/C",[31],31.9%
same,"viability, T/C",[32],35.4%
same,"viability, T/C",[33],42.6%
same,"viability, T/C",[34],30.3%
same,"viability, T/C",[35],41.4%
same,"viability, T/C",[36],27.5%
C=CCn1c(=O)c2cnc(Nc3ccc(N4CCN(C)CC4)cc3)nc2n1-c1cccc(C(C)(C)O)n1 + CN(C)c1ccc(Nc2c3ccc(NC(=O)CCN4CCCC4)cc3nc3cc(NC(=O)CCN4CCCC4)ccc23)cc1,IC50,second compound 0.0316 µM,> 10000 nM
same,IC50,second compound 0.1 µM,> 10000 nM
same,IC50,second compound 0.316 µM,> 10000 nM
same,IC50,second compound 1 µM,< 31.6 nM
same,IC50,second compound 3.16 µM,459 nM
same,IC50,second compound 10 µM,< 31.6 nM
same,"viability, T/C",[1],87.6%
same,"viability, T/C",[2],86.2%
same,"viability, T/C",[3],66.3%
same,"viability, T/C",[4],68.4%
same,"viability, T/C",[5],68.6%
same,"viability, T/C",[6],88.7%
same,"viability, T/C",[7],81.6%
same,"viability, T/C",[8],80.5%
same,"viability, T/C",[9],49%
same,"viability, T/C",[10],64.7%
same,"viability, T/C",[11],53.2%
same,"viability, T/C",[12],67.9%
same,"viability, T/C",[13],81.5%
same,"viability, T/C",[14],67.3%
same,"viability, T/C",[15],54.6%
same,"viability, T/C",[16],51.6%
same,"viability, T/C",[17],54.8%
same,"viability, T/C",[18],75%
same,"viability, T/C",[19],47.1%
same,"viability, T/C",[20],56.2%
same,"viability, T/C",[21],49.7%
same,"viability, T/C",[22],42.5%
same,"viability, T/C",[23],54.7%
same,"viability, T/C",[24],74%
same,"viability, T/C",[25],56.9%
same,"viability, T/C",[26],52.5%
same,"viability, T/C",[27],57.2%
same,"viability, T/C",[28],38.1%
same,"viability, T/C",[29],52.1%
same,"viability, T/C",[30],40.2%
same,"viability, T/C",[31],41.4%
same,"viability, T/C",[32],45.5%
same,"viability, T/C",[33],53.8%
same,"viability, T/C",[34],38.9%
same,"viability, T/C",[35],47.9%
same,"viability, T/C",[36],54.6%

# Source: PubChem BioAssay AID2060496 (Molecular Pharmacology Branch, DTP, NCI, 2025)
